Experimental data taken from PubChem BioAssay (NCI).
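Tested at 5 concentrations; 48 h exposure; 96-well plates; endpoints linearly interpolated, else capped at highest concentration. The concentration for full growth arrest is given as TGI.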

How the values were obtained:
Assay in all cases: DTP human tumour cell line panel, 48 h
[1] = tested on: CCRF-CEM leukemia
[2] = tested on: COLO 205 colon
[3] = tested on: HCC-2998 colon
[4] = tested on: HL-60(TB) leukemia
[5] = tested on: HOP-92 NSCLC
[6] = tested on: IGROV1 ovarian
[7] = tested on: K-562 leukemia
[8] = tested on: LOX IMVI melanoma
[9] = tested on: M14 melanoma
[10] = tested on: MCF7 breast
[11] = tested on: NCI-H23 lung
[12] = tested on: NCI/ADR-RES ovarian
[13] = tested on: SF-539 CNS
[14] = tested on: SK-MEL-2 melanoma
[15] = tested on: SK-MEL-28 melanoma
[16] = tested on: SR leukemia
[17] = tested on: T-47D breast
[18] = tested on: UO-31 renal

Compound: O=C(O)c1cc2c(cc1CC(Cc1ccc3c(c1)CCCC3)C(=O)O)CCCC2 (centres undefined)
- TGI [1]: > 100 µM
- TGI [2]: > 100 µM
- TGI [3]: > 100 µM
- TGI [4]: > 100 µM
- TGI [5]: > 100 µM
- TGI [6]: > 100 µM
- TGI [7]: > 100 µM
- TGI [8]: > 100 µM
- TGI [9]: > 100 µM
- TGI [10]: > 100 µM
- TGI [11]: > 100 µM
- TGI [12]: > 100 µM
- TGI [13]: > 100 µM
- TGI [14]: > 100 µM
- TGI [15]: > 100 µM
- TGI [16]: > 100 µM
- TGI [17]: > 100 µM
- TGI [18]: > 100 µM

Compound: O=C(O)c1cc(=O)c2c(OCC(O)COc3cccc4oc(C(=O)O)cc(=O)c34)cccc2o1
- TGI [1]: > 100 µM
- TGI [2]: > 100 µM
- TGI [3]: > 100 µM
- TGI [4]: > 100 µM
- TGI [5]: > 93.8 µM
- TGI [6]: > 94.9 µM
- TGI [7]: > 100 µM
- TGI [8]: > 100 µM
- TGI [9]: > 100 µM
- TGI [10]: > 100 µM
- TGI [11]: > 100 µM
- TGI [12]: > 100 µM
- TGI [13]: > 100 µM
- TGI [14]: > 79.2 µM
- TGI [15]: > 100 µM
- TGI [16]: > 100 µM
- TGI [17]: > 100 µM
- TGI [18]: > 100 µM

Compound: O=C(/C=C/c1ccc(C(F)(F)F)cc1)c1c([O-])on[n+]1-c1ccccc1
- TGI [1]: 0.188 µM
- TGI [2]: 4.91 µM
- TGI [3]: 4.18 µM
- TGI [4]: 0.459 µM
- TGI [5]: 3.06 µM
- TGI [6]: 4.02 µM
- TGI [7]: > 100 µM
- TGI [8]: 1.56 µM
- TGI [9]: 6.6 µM
- TGI [10]: > 34.5 µM
- TGI [11]: 10 µM
- TGI [12]: 4.18 µM
- TGI [13]: 3.98 µM
- TGI [14]: 9.64 µM
- TGI [15]: 2.89 µM
- TGI [16]: 0.846 µM
- TGI [17]: 3.82 µM
- TGI [18]: 4 µM

Compound: Cc1ccc(C(=O)Cn2c(C(=O)/C=C/c3cccs3)nc3ccccc32)cc1
- TGI [1]: 38.5 µM
- TGI [2]: > 100 µM
- TGI [3]: 43.7 µM
- TGI [4]: > 100 µM
- TGI [5]: > 100 µM
- TGI [6]: > 100 µM
- TGI [7]: > 100 µM
- TGI [8]: > 100 µM
- TGI [9]: > 100 µM
- TGI [10]: > 100 µM
- TGI [11]: > 100 µM
- TGI [12]: > 100 µM
- TGI [13]: > 100 µM
- TGI [14]: 48.3 µM
- TGI [15]: > 100 µM
- TGI [16]: 50.4 µM
- TGI [17]: > 100 µM
- TGI [18]: > 100 µM

Compound: NC(=O)c1ncn(C2OC(CO)C(O)C2O)c1NC=O (centres undefined)
- TGI [1]: > 100 µM
- TGI [2]: > 100 µM
- TGI [3]: > 100 µM
- TGI [4]: > 100 µM
- TGI [5]: > 100 µM
- TGI [6]: > 100 µM
- TGI [7]: > 100 µM
- TGI [8]: > 100 µM
- TGI [9]: > 100 µM
- TGI [10]: > 100 µM
- TGI [11]: > 100 µM
- TGI [12]: > 100 µM
- TGI [13]: > 100 µM
- TGI [14]: > 100 µM
- TGI [15]: > 100 µM
- TGI [16]: > 100 µM
- TGI [17]: > 100 µM
- TGI [18]: > 100 µM

Compound: Clc1ccc(C(Cc2cccc(Cl)c2)c2c(Cl)nc(N3CCNCC3)nc2Cl)cc1 (centres undefined)
- TGI [1]: 31.9 µM
- TGI [2]: 11.9 µM
- TGI [3]: 28.4 µM
- TGI [4]: 23.1 µM
- TGI [5]: 27.1 µM
- TGI [6]: > 100 µM
- TGI [7]: 26.5 µM
- TGI [8]: 25.5 µM
- TGI [9]: 26.2 µM
- TGI [10]: 24.6 µM
- TGI [11]: 34.1 µM
- TGI [12]: 36.2 µM
- TGI [13]: 35.2 µM
- TGI [14]: 40.9 µM
- TGI [15]: 33.6 µM
- TGI [16]: 17.5 µM
- TGI [17]: 31 µM
- TGI [18]: 25.8 µM

Compound: Cc1cc(C)c(O)c(CN2CCN(C(C)C)CCN(C(C)C)CC2)c1
- TGI [1]: 83.9 µM
- TGI [2]: 60.8 µM
- TGI [3]: 40.8 µM
- TGI [4]: 71 µM
- TGI [5]: 65.2 µM
- TGI [6]: 18.1 µM
- TGI [7]: > 100 µM
- TGI [8]: 42.6 µM
- TGI [9]: 26.2 µM
- TGI [10]: > 100 µM
- TGI [12]: > 100 µM
- TGI [13]: 30.8 µM
- TGI [14]: > 100 µM
- TGI [15]: 72.8 µM
- TGI [16]: 64 µM
- TGI [17]: 61 µM
- TGI [18]: 82.9 µM

Compound: CCOC(=O)Cn1c(=O)c2nc(SC)sc2n(-c2ccccc2)c1=S
- TGI [1]: > 100 µM
- TGI [2]: > 100 µM
- TGI [3]: > 100 µM
- TGI [4]: 59.4 µM
- TGI [5]: 21 µM
- TGI [6]: > 100 µM
- TGI [7]: > 100 µM
- TGI [8]: > 100 µM
- TGI [9]: 70.4 µM
- TGI [10]: > 100 µM
- TGI [11]: > 100 µM
- TGI [12]: > 100 µM
- TGI [13]: 31.6 µM
- TGI [14]: 63.1 µM
- TGI [15]: > 100 µM
- TGI [16]: > 100 µM
- TGI [17]: > 100 µM
- TGI [18]: 15 µM

Compound: C=C1CCCC(C)(C)C1CCC1(C)CCC(C(C)C(=O)OC)OO1 (centres undefined)
- TGI [1]: > 18 µM
- TGI [2]: 13.3 µM
- TGI [3]: 11.5 µM
- TGI [4]: 9.16 µM
- TGI [5]: 2.44 µM
- TGI [6]: 1.7 µM
- TGI [7]: > 25 µM
- TGI [8]: 0.902 µM
- TGI [9]: > 25 µM
- TGI [10]: > 25 µM
- TGI [11]: 8.99 µM
- TGI [12]: > 18.4 µM
- TGI [13]: > 22.2 µM
- TGI [14]: > 25 µM
- TGI [15]: > 25 µM
- TGI [16]: 9.78 µM
- TGI [17]: 11.7 µM
- TGI [18]: 1.91 µM

Compound: Cn1c(=O)c2c(nc3sc4c(n32)C(=O)c2c(O)ccc(O)c2C4=O)n(C)c1=O
- TGI [1]: 1.9 µM
- TGI [2]: 12.1 µM
- TGI [3]: 17.5 µM
- TGI [4]: 2.83 µM
- TGI [5]: 7.93 µM
- TGI [6]: 25.4 µM
- TGI [7]: 2.44 µM
- TGI [8]: 2.75 µM
- TGI [9]: 6.48 µM
- TGI [10]: 3.41 µM
- TGI [11]: 21.2 µM
- TGI [12]: 17.1 µM
- TGI [13]: 15.6 µM
- TGI [14]: 17.5 µM
- TGI [15]: 21.3 µM
- TGI [16]: 3.23 µM
- TGI [17]: 7.6 µM
- TGI [18]: 11.6 µM

Compound: CN(C)CCCSc1nc2c(c(=N)n1-c1ccccc1)c(=S)n(-c1ccccc1)c(=S)n2-c1ccccc1
- TGI [1]: 2.41 µM
- TGI [2]: 3.94 µM
- TGI [3]: 2.82 µM
- TGI [4]: 1.75 µM
- TGI [5]: 3.24 µM
- TGI [6]: 3.14 µM
- TGI [7]: 3.81 µM
- TGI [8]: 2.87 µM
- TGI [9]: 3.76 µM
- TGI [10]: > 100 µM
- TGI [11]: 4.45 µM
- TGI [12]: 7.38 µM
- TGI [13]: 6.95 µM
- TGI [14]: 4.11 µM
- TGI [15]: 3.88 µM
- TGI [16]: 1.07 µM
- TGI [17]: 4.62 µM

Compound: OC[P+](CO)(CO)C12CC3CC(CC(C3)C1)C2
- TGI [1]: 62.2 µM
- TGI [2]: > 100 µM
- TGI [3]: > 100 µM
- TGI [4]: 35.4 µM
- TGI [5]: > 100 µM
- TGI [6]: > 100 µM
- TGI [7]: > 100 µM
- TGI [8]: > 29.8 µM
- TGI [9]: > 100 µM
- TGI [10]: > 100 µM
- TGI [11]: > 100 µM
- TGI [12]: > 100 µM
- TGI [13]: > 100 µM
- TGI [14]: > 100 µM
- TGI [15]: > 100 µM
- TGI [16]: > 82 µM
- TGI [17]: > 100 µM
- TGI [18]: > 100 µM
